This is an account of results in article PMC7912740 (Pharmaceutics, 2021).

What all share (type): biochemical
Experiment [1] deals with T1, UGT1A3 (Homo sapiens, UniProt P35503).
T1 construct: native enzyme in ultrapooled human liver microsomes (Corning 452161), read by chenodeoxycholic acid 24-acyl-glucuronidation
T1 sequence (P35503 29-534): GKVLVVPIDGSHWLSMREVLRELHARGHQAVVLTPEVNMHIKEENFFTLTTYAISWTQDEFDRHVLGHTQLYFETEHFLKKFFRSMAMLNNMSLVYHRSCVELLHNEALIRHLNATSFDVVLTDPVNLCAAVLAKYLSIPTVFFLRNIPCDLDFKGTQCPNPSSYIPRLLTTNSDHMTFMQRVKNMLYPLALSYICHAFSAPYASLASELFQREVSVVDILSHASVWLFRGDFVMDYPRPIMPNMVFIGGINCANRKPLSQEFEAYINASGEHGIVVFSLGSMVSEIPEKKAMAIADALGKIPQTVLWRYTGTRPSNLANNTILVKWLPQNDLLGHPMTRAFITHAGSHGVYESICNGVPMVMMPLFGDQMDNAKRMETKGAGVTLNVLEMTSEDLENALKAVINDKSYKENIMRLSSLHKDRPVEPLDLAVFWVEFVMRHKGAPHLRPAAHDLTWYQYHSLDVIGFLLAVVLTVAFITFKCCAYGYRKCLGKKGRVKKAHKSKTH
The experiment can be described thus: chenodeoxycholic acid 24-acyl-glucuronidation in human liver microsomes, LC-MS/MS, Dixon plot. As to conditions: chenodeoxycholic acid 1–10 µM, 5 mM UDPGA, 10 mM MgCl2, alamethicin, pH 7.4, 30 min; competitive. Background: Liver microsomes are vesicles of endoplasmic reticulum, rich in cytochrome P450 enzymes.

Experiment [2] deals with T2, UGT1A1 (Homo sapiens, UniProt P22309).
T2 construct: native enzyme in ultrapooled human liver microsomes (Corning 452161), read by SN-38 glucuronidation
T2 sequence (P22309 26-533): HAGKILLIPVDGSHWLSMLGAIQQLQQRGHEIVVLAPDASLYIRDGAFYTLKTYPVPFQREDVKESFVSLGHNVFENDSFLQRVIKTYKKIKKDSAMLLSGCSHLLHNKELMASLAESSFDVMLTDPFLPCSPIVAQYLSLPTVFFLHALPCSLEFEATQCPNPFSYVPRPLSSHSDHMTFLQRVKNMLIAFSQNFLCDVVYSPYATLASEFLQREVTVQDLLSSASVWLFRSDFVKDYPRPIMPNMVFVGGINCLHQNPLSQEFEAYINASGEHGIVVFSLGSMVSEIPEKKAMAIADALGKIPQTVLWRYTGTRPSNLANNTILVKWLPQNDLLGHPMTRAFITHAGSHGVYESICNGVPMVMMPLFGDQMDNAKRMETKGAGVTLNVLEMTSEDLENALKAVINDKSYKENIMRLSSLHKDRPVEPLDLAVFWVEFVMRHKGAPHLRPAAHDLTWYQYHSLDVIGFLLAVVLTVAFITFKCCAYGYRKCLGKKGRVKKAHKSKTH
The experiment can be described thus: SN-38 glucuronidation in human liver microsomes, cocktail, LC-MS/MS. The note with it: 0.5 µM SN-38 (probe cocktail set A), 5 mM UDPGA, 10 mM MgCl2, alamethicin, pH 7.4, 37 °C, 60 min.

A further experiment has as its target T3, UGT2B7 (Homo sapiens, UniProt P16662).
T3 construct: native enzyme in ultrapooled human liver microsomes (Corning 452161), read by naloxone 3-glucuronidation
T3 sequence (P16662 24-529): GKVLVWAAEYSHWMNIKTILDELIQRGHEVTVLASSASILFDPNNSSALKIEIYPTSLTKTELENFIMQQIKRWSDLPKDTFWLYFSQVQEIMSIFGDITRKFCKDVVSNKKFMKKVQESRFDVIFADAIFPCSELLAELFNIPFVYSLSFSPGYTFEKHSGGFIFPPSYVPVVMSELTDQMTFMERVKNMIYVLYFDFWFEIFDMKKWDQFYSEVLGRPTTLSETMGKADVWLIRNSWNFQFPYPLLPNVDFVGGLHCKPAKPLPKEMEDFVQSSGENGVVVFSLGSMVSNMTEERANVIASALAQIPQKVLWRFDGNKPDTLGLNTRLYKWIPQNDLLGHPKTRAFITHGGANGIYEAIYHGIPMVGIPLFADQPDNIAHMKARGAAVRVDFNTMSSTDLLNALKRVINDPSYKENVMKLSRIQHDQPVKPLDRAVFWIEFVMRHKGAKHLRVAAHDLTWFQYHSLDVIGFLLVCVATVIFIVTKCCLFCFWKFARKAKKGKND
As to the kind of experiment: naloxone 3-beta-D-glucuronidation in human liver microsomes, cocktail, LC-MS/MS. As to conditions: 1 µM naloxone (probe cocktail set B), 5 mM UDPGA, 10 mM MgCl2, alamethicin, pH 7.4, 37 °C, 60 min; read-out: IC50 (μM) / Eudesmin.

Experiment [3] has as its target T1, UGT1A3. As to the kind of experiment: chenodeoxycholic acid 24-acyl-glucuronidation in human liver microsomes, cocktail, LC-MS/MS. As to conditions: 2 µM chenodeoxycholic acid (probe cocktail set A), 5 mM UDPGA, 10 mM MgCl2, alamethicin, pH 7.4, 37 °C, 60 min.
A further experiment has as its target T4, UGT1A4 (Homo sapiens, UniProt P22310).
T4 construct: native enzyme in ultrapooled human liver microsomes (Corning 452161), read by trifluoperazine N-glucuronidation
T4 sequence (P22310 29-534): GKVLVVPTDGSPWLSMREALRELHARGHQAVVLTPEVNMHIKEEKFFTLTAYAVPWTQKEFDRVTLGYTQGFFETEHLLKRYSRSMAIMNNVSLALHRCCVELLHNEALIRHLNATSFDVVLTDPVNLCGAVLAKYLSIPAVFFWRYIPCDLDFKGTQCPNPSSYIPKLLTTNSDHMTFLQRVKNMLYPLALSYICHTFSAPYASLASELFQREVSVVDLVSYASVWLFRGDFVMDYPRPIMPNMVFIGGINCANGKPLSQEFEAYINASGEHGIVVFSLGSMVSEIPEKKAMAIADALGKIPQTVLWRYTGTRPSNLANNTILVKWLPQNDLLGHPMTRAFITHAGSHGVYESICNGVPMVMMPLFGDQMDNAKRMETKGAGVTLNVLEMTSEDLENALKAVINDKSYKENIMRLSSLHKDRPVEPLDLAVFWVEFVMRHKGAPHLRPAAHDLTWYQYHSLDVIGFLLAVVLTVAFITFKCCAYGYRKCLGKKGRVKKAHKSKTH
As to the kind of experiment: trifluoperazine N-glucuronidation in human liver microsomes, cocktail, LC-MS/MS. As to conditions: 0.5 µM trifluoperazine (probe cocktail set A), 5 mM UDPGA, 10 mM MgCl2, alamethicin, pH 7.4, 37 °C, 60 min; read-out: IC50 (μM) / Eudesmin.

Another experiment concerns the target T5, UGT1A6 (Homo sapiens, UniProt P19224).
T5 construct: native enzyme in ultrapooled human liver microsomes (Corning 452161), read by N-acetylserotonin glucuronidation
T5 sequence (P19224 27-532): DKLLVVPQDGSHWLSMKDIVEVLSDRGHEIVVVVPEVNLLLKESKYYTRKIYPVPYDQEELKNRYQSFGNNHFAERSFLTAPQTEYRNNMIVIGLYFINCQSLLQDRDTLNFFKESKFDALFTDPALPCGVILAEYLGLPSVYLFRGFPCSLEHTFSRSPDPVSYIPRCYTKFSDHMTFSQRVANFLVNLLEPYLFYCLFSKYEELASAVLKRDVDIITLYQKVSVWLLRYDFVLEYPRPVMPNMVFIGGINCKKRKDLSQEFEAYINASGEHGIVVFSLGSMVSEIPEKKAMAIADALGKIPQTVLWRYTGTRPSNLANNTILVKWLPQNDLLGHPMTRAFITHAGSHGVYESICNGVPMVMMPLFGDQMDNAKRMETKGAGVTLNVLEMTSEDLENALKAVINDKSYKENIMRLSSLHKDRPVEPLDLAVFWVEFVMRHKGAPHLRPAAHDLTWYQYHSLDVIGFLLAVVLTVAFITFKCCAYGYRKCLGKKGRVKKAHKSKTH
As to the kind of experiment: N-acetylserotonin glucuronidation in human liver microsomes, cocktail, LC-MS/MS. As to conditions: 1 µM N-acetylserotonin (probe cocktail set B), 5 mM UDPGA, 10 mM MgCl2, alamethicin, pH 7.4, 37 °C, 60 min.

Experiment [4] has as its target T2, UGT1A1. As to the kind of experiment: SN-38 glucuronidation in human liver microsomes, LC-MS/MS, Dixon plot. The note with it: SN-38 0.2–2 µM, 5 mM UDPGA, 10 mM MgCl2, alamethicin, pH 7.4, 30 min; noncompetitive.
The next experiment concerns the target T6, UGT1A9 (Homo sapiens, UniProt O60656).
T6 construct: native enzyme in ultrapooled human liver microsomes (Corning 452161), read by mycophenolic acid glucuronidation
T6 sequence (O60656 26-530): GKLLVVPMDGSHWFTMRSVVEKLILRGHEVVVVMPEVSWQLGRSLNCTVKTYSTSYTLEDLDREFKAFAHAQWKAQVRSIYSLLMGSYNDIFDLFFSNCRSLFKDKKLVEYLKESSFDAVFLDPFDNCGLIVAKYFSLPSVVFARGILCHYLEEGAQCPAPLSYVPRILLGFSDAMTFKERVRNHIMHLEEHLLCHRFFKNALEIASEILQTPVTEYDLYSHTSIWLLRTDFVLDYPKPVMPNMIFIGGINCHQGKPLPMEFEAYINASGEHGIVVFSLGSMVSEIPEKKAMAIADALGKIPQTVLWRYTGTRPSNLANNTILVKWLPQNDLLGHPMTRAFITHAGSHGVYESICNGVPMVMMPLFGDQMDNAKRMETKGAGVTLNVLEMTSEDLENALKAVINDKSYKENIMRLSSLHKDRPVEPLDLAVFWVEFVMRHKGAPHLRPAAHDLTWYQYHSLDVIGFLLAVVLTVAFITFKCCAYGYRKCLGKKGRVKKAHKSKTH
As to the kind of experiment: mycophenolic acid glucuronidation in human liver microsomes, cocktail, LC-MS/MS. The note with it: 0.2 µM mycophenolic acid (probe cocktail set B), 5 mM UDPGA, 10 mM MgCl2, alamethicin, pH 7.4, 37 °C, 60 min.

Setting [5] is: read-out: IC50 (μM) / Yangambin.
Where [6] appears, read: read-out: IC50 (μM) / Epimagnolin A.

SMILES strings stand for the structures. Where two headings read alike, the source gives them in different places.

The term Ki denotes a dissociation constant, usually derived from enzyme kinetics or from competition with a known ligand. High values mean lower affinity, low ones higher affinity.

Excerpt for UGT1A4: trifluoperazine N-glucuronidation in human liver microsomes, cocktail, LC-MS/MS on UGT1A4
Excerpt for UGT1A6: N-acetylserotonin glucuronidation in human liver microsomes, cocktail, LC-MS/MS on UGT1A6
Excerpt for UGT1A9: mycophenolic acid glucuronidation in human liver microsomes, cocktail, LC-MS/MS on UGT1A9
Excerpt for UGT2B7: naloxone 3-beta-D-glucuronidation in human liver microsomes, cocktail, LC-MS/MS on UGT2B7

With `COc1ccc([C@H]2OC[C@H]3[C@@H]2CO[C@@H]3c2ccc(OC)c(OC)c2)cc1OC` [Eudesmin], the results for the Ki at UGT1A3 [1] and at UGT1A1 [4] were 39.8 µM and 25.7 µM, respectively. In addition, the IC50 on UGT1A1 [2] (read-out: IC50 (μM) / Eudesmin) was 24.3 µM; on UGT2B7 it was > 200 µM; on UGT1A3 [3] (read-out: IC50 (μM) / Eudesmin) it was 26.6 µM; at UGT1A4 it was > 200 µM; on UGT1A6 (read-out: IC50 (μM) / Eudesmin), 196 µM; on UGT1A9 (read-out: IC50 (μM) / Eudesmin), 173 µM.
Turning to `COc1cc([C@H]2OC[C@H]3[C@@H]2CO[C@@H]3c2cc(OC)c(OC)c(OC)c2)cc(OC)c1OC` [Yangambin], the Ki on UGT1A3 [1] was 66.8 µM; on UGT1A1 [4] it was 17.1 µM. For the same compound, the IC50 was 29.7 µM at UGT1A1 [2] (setting [5]); > 200 µM on UGT2B7; 56.5 µM at UGT1A3 [3] (setting [5]); > 200 µM on UGT1A4; > 200 µM at UGT1A6 (setting [6]); > 200 µM at UGT1A9 (setting [6]).
